Assay [1] concerns the target High affinity nerve growth factor receptor (Homo sapiens) (UniProt P04629). The experiment in a line: Inhibition of human TRKA at 1.82 nM by HotSpot assay relative to control.
Assay [2] deals with T1, Serine/threonine-protein kinase Nek11 (Homo sapiens) (UniProt Q8NG66).
T1 sequence (whole entry): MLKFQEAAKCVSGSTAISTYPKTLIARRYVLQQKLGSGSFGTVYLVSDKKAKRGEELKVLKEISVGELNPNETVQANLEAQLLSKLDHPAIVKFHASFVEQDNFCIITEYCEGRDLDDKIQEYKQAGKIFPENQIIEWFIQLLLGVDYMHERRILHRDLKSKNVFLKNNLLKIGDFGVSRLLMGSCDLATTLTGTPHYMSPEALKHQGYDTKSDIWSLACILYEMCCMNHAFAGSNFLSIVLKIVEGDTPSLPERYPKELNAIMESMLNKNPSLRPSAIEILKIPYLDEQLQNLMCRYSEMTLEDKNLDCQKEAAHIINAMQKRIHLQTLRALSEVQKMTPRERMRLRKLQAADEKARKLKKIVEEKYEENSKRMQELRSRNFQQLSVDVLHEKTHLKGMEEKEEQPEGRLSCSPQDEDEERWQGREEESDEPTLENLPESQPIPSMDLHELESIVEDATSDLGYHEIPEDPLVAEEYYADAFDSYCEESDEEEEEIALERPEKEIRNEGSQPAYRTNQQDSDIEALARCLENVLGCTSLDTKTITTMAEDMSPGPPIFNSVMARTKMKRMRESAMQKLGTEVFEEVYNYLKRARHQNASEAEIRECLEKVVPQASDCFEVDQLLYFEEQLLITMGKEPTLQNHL
The experiment in a line: Inhibition of human NEK11 at 1.82 nM by HotSpot assay relative to control.

Assay [3] deals with Leukocyte tyrosine kinase receptor (Homo sapiens) (UniProt P29376). Nature of the assay: Inhibition of human LTK at 1.82 nM by HotSpot assay relative to control.
Assay [4] concerns the target Fibroblast growth factor receptor 4 (Homo sapiens) (UniProt P22455). Nature of the assay: Inhibition of human FGFR4 at 1.82 nM by HotSpot assay relative to control.
Assay [5] deals with Cyclin-dependent kinase 2/cyclin E1 (Homo sapiens) (UniProt P24864+P24941). Nature of the assay: Inhibition of human CDK2/cyclin E at 1.82 nM by HotSpot assay relative to control. It counts as protein-complex assay.
For assay [6], the target named is Cyclin-dependent kinase 4/cyclin D1 (Homo sapiens) (UniProt P11802+P24385). Nature of the assay: Inhibition of human CDK4/cyclin D1 at 1.82 nM by HotSpot assay relative to control. Format: protein-complex assay.
Assay [7] deals with Tyrosine-protein kinase JAK1 (Homo sapiens) (UniProt P23458). The experiment in a line: Inhibition of human JAK1 at 18.6 nM by HotSpot assay relative to control.
Tyrosine-protein kinase JAK1 (Homo sapiens), sequence (P23458 whole entry): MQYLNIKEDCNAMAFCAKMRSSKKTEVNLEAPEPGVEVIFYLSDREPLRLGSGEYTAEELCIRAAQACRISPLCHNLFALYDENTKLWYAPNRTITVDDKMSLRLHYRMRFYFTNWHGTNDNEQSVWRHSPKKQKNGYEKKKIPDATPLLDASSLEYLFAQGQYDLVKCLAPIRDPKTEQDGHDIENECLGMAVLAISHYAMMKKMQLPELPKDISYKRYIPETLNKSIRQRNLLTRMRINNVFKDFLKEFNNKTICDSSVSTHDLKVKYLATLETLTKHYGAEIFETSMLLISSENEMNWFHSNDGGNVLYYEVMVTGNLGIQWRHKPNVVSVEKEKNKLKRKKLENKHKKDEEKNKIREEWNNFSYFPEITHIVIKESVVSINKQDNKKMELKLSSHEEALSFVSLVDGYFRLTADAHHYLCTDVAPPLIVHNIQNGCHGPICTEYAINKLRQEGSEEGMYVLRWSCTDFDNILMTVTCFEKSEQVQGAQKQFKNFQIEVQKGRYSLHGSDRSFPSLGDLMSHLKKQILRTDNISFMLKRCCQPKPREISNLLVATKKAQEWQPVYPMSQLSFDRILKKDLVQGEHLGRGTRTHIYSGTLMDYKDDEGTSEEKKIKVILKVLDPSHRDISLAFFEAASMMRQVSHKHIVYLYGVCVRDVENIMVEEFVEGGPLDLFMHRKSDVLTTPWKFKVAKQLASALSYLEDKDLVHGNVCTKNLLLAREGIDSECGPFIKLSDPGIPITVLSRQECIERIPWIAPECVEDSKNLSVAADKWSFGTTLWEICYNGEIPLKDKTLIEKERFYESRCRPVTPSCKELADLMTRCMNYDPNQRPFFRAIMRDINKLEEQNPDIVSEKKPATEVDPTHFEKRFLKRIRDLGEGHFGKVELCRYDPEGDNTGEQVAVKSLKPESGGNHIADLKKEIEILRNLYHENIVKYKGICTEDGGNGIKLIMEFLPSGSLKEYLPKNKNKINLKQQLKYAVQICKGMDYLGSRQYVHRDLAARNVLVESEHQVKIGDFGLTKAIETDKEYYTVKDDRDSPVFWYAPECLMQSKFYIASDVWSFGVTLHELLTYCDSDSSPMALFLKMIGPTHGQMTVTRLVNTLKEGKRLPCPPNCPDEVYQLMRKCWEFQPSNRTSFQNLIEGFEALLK
Assay [8] addresses MAP kinase-interacting serine/threonine-protein kinase 2 (Homo sapiens) (UniProt Q9HBH9). The experiment in a line: Inhibition of human MNK2 at 18.6 nM by HotSpot assay relative to control.
For assay [9], the target named is Fibroblast growth factor receptor 4 (Homo sapiens) (UniProt P22455). The experiment in a line: Inhibition of human FGFR4 at 18.6 nM by HotSpot assay relative to control.
Fibroblast growth factor receptor 4 (Homo sapiens), sequence (P22455 22-802 limits assumed): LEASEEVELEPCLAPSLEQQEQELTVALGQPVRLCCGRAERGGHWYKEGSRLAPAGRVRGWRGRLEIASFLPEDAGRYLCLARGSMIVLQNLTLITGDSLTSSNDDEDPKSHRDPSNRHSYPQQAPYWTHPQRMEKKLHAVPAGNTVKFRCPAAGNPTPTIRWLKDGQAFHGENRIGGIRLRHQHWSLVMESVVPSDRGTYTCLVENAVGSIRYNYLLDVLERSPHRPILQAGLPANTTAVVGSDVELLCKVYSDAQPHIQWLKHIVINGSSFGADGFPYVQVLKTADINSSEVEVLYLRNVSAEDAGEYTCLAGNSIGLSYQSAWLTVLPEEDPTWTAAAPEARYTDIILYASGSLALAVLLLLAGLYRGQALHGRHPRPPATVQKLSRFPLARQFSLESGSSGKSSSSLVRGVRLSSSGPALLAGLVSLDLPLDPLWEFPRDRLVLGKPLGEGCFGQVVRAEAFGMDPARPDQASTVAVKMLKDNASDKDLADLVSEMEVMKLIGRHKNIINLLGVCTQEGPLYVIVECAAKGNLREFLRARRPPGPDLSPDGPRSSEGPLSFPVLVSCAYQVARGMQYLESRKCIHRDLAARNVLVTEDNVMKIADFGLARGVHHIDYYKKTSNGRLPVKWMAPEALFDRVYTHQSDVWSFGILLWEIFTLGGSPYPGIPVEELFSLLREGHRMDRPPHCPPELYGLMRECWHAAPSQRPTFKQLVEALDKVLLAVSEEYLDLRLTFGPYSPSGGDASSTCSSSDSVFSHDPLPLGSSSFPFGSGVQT
Assay [10] addresses Dual specificity protein kinase CLK3 (Homo sapiens) (UniProt P49761). The experiment in a line: Inhibition of human CLK3 at 18.6 nM by HotSpot assay relative to control.
The target in assay [11] is T2, Tyrosine-protein kinase receptor TYRO3 (Homo sapiens) (UniProt Q06418).
T2 sequence (whole entry): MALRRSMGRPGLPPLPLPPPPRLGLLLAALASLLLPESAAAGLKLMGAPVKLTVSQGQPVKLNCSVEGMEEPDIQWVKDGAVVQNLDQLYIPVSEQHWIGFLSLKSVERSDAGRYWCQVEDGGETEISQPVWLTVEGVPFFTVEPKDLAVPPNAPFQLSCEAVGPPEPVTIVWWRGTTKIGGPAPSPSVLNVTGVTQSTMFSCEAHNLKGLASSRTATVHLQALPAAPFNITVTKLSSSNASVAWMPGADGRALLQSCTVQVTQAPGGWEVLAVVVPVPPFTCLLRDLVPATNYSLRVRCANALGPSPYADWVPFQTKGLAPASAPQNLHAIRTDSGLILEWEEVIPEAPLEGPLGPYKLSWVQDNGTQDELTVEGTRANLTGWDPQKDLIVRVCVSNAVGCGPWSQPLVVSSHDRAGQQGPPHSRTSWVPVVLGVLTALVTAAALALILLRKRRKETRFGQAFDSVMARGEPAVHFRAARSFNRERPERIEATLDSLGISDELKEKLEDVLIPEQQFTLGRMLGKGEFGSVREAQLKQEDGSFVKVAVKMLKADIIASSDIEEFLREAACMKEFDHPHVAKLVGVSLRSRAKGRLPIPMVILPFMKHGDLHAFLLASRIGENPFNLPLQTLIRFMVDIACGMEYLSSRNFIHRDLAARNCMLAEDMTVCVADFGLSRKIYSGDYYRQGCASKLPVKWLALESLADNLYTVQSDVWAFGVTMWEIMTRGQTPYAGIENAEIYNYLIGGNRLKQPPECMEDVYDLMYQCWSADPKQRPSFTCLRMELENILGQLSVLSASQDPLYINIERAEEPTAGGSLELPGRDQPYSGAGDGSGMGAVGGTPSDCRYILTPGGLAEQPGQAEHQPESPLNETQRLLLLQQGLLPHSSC
Nature of the assay: Inhibition of human SKY at 18.6 nM by HotSpot assay relative to control.

Assay [12] has as its target T3, Serine/threonine-protein kinase Chk1 (Homo sapiens) (UniProt O14757).
T3 sequence (whole entry): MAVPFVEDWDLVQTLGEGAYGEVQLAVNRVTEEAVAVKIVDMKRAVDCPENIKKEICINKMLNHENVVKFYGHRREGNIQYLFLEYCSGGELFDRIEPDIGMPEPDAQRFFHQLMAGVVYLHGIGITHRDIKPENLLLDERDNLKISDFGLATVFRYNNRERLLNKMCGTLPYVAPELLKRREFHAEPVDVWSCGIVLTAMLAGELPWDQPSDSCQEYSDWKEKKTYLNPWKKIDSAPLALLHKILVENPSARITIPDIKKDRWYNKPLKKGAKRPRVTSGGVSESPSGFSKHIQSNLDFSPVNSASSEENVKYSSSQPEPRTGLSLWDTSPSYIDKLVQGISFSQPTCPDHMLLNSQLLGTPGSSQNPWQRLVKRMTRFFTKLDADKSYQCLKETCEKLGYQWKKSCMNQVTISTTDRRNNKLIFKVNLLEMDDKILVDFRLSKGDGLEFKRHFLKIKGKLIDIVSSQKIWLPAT
Nature of the assay: Inhibition of human CHK1 at 18.6 nM by HotSpot assay relative to control.

Assay [13] concerns the target Tyrosine-protein kinase ABL1 (Homo sapiens) (UniProt P00519). The experiment in a line: Inhibition of human ABL1 at 18.6 nM by HotSpot assay relative to control.
Assay [14] concerns the target Casein kinase I isoform gamma-3 (Homo sapiens) (UniProt Q9Y6M4). The experiment in a line: Inhibition of human CK1g3 at 18.6 nM by HotSpot assay relative to control.
Assay [15] has as its target Ephrin type-A receptor 2 (Homo sapiens) (UniProt P29317). The experiment in a line: Inhibition of human EPHA2 at 18.6 nM by HotSpot assay relative to control.

The structures appear in SMILES notation.

MAP kinase-interacting serine/threonine-protein kinase 2 (Homo sapiens), sequence (Q9HBH9 whole entry, looked up): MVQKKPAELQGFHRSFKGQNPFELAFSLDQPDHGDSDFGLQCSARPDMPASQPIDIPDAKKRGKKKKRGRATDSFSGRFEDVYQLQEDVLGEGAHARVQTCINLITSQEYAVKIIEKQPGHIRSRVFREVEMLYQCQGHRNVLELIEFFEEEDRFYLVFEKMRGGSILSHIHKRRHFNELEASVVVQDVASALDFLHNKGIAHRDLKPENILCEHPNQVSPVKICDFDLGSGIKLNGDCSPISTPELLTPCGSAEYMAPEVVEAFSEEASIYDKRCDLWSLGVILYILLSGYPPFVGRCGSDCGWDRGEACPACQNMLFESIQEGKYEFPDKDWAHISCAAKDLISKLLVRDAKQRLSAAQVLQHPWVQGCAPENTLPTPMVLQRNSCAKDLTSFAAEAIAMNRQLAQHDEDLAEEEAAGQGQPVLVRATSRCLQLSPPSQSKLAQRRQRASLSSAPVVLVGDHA
Dual specificity protein kinase CLK3 (Homo sapiens), sequence (P49761 whole entry, looked up): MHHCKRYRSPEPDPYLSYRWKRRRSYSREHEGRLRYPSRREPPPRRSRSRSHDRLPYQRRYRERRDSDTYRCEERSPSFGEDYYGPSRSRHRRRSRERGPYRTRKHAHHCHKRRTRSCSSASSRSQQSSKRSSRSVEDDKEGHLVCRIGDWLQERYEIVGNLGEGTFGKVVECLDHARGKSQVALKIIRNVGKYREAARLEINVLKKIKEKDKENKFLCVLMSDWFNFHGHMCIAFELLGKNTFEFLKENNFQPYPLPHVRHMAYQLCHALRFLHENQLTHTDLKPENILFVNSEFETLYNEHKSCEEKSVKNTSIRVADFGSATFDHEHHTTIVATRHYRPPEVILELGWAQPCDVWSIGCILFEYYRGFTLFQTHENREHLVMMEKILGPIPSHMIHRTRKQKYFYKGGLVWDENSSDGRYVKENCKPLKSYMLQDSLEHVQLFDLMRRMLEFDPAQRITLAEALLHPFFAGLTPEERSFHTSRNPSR
Casein kinase I isoform gamma-3 (Homo sapiens), sequence (Q9Y6M4 whole entry, looked up, canonical isoform): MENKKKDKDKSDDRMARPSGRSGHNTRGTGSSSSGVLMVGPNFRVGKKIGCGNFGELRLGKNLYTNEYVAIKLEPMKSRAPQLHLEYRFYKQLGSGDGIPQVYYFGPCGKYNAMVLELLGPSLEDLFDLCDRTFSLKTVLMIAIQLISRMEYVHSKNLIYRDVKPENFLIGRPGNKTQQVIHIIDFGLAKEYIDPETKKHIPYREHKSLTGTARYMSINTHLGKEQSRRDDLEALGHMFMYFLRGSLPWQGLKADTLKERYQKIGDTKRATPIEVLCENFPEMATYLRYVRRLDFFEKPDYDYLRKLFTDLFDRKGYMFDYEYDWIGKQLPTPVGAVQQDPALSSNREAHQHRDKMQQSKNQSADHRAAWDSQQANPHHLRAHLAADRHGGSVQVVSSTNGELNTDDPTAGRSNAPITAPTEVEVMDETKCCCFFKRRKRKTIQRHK
Tyrosine-protein kinase ABL1 (Homo sapiens), sequence (P00519 whole entry, canonical isoform): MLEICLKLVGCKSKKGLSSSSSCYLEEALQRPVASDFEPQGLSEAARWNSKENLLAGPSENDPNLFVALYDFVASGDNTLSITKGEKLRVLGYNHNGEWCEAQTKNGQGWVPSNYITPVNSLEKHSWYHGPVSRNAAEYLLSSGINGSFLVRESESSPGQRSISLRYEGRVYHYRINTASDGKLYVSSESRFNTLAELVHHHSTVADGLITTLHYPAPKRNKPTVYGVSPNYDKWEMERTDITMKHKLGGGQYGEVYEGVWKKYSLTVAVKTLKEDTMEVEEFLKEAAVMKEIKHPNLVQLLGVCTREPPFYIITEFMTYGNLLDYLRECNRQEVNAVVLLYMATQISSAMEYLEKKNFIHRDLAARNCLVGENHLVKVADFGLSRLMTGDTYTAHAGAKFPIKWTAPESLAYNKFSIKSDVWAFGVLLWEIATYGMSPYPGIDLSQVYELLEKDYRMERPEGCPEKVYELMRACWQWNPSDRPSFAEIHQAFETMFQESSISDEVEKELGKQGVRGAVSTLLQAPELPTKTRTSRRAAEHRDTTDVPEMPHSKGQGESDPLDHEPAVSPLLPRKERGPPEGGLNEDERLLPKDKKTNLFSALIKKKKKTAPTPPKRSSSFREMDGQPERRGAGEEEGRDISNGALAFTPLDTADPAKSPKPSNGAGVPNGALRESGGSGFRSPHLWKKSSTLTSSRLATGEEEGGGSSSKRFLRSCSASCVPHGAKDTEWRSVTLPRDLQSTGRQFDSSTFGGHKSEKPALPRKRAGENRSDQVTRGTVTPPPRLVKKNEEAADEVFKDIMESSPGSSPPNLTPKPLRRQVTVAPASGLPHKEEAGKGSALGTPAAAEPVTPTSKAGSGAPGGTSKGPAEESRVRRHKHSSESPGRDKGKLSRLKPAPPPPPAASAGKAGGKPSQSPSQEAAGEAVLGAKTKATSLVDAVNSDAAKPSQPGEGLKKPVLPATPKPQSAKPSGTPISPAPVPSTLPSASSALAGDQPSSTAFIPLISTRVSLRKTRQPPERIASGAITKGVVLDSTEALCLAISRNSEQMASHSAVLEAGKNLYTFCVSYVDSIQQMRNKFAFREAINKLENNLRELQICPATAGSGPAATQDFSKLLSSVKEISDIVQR

`C[C@@]1(C(=O)Nc2ccc(F)nc2)CCCN1c1nc(Nc2cc(C3CC3)n[nH]2)c2cccn2n1`: the inhibition (as a rule, the relative decrease from the control value, in per cent) is 21.1% in assay [1]; -5.31% in [2]; -7.41% in assay [3]; 6.74% in assay [4]; 3.51% in [5]; -5.89% in assay [6].
With `C[C@]1(O)C[C@@H](c2nc(-c3ccc4ccc(-c5ccccc5)nc4c3)c3c(N)nccn32)C1`, the inhibition in assay [7] is -9.75%; in [8], -3.65%; in assay [9], 9%; in [10], -0.8%; in assay [11], 1.42%; in assay [12], -5.11%. The inhibition in assay [13] worked out at 9.07%; in assay [14] it was 1.42%; in assay [15] it was 2.9%.

The values above are taken from ChEMBL document CHEMBL5653615 (J Biol Chem, 2013).
